How the values were obtained:
MDA-MB-231 cells = assay: AlamarBlue cell viability assay; type: cell-based; conditions: Homo sapiens, MDA-MB-231, 72 h
Experimental: The potent 3-fluoro-β-lactam compound 33 synthesised was also evaluated in the triple-negative MDA-MB-231 cell line which lacks expression of the estrogen and progesterone receptors (ER/PR) and the HER2 receptor. […]. Compound 32 was also evaluated in the triple-negative breast cancer cell line Hs578T and its isogenic subclone Hs578T(i)8 (Figure 4C). Hs578Ts(i)8 cells have 2.5-fold more migratory capacity and 3-fold more invasive capacity through the extracellular matrix than the parental cell line (Hs578T) and have 30% more CD44+/CD24-/low cells and in vivo proliferation. […]. […] Cell proliferation for MCF-7 cells was analysed with the AlamarBlue assay (Invitrogen Corp.) as previously described by us. […] Fluorescence results were obtained with a 96-well fluorimeter with excitation at 530 nm and emission at 590 nm with results recorded as percentage viability relative to vehicle control (100%). […]
Figure 4 Antiproliferative activity of 3-fluoro β-lactams on MCF-7, MDA-MB-231, Hs578T and Hs578T isogenic subclone Hs578T(i)8 breast cancer cells and non-tumourigenic HEK-293T cells. […] Cell viability was expressed as a percentage of vehicle control (ethanol 1% (v/v))-treated cells. […] Cell viability was expressed as a percentage of vehicle control (ethanol 1% (v/v))-treated cells and was measured by AlamarBlue assay (average of three independent experiments). […]

[1] = system: purified bovine brain tubulin; set-up: method as in PMID 31954879; conditions: 10 μM; cited from earlier work
MCF-7 cells = assay: Immunofluorescence confocal microscopy of the microtubule network; type: cell-based, human; conditions: MCF-7, 16 h; 33 0.1, 0.5 and 1.0 μM; paclitaxel 1.0 μM; CA-4 0.01 μM
Experimental: The tubulin-targeting effect of compound 33 on the microtubule network of MCF-7 cells was further evaluated by immunofluorescence studies to identify the cellular effects that are relevant to its mechanism of action by inhibiting the polymerisation of tubulin. […] Treatment of MCF-7 cells with compound 33 (0.1, 0.5 and 1.0 μM) induced cell rounding and distinct abnormalities of the spindle formation as well as a loss of the structured tubulin that impacts the microtubule network structure in a dose-dependent manner.
Confocal microscopy was used to determine the effects of novel compound 33 and standard drugs on the MCF-7 cytoskeleton according to the protocols we previously described. For the immunofluorescence study, MCF-7 cells were seeded at 1 × 10^5 cells/mL using eight chamber glass slides (BD Biosciences). The cells were treated with vehicle control (1% ethanol (v/v)), CA-4 (0.01 μM), paclitaxel (1 µM) and 33 (0.1 µM, 0.5 µM and 1 µM) for 16 h. The cells were gently washed in PBS, fixed with 4% paraformaldehyde in PBS (20 min) and permeabilised in 0.5% Triton X-100. After further washes in PBS (containing 0.1% Tween (PBST)), cells were blocked with 5% bovine serum albumin which was diluted with PBST. Cells were incubated with mouse monoclonal anti-α-tubulin–FITC antibody (clone DM1A) (Sigma) (1:100) at 20 °C for 2 h and then washed in PBST and incubated with Alexa Fluor 488 dye (1:500) for 1 h at 20 °C. Cells were washed in PBST and mounted in Ultra Cruz Mounting Media (Santa Cruz Biotechnology, Santa Cruz, CA, USA) containing 4,6-diamino-2-phenolindol dihydrochloride (DAPI). The images were captured by Leica SP8 confocal microscopy with Leica Application Suite X software. Experiments were performed on three independent occasions and images were collected on the same day using identical parameters.
Figure 8 Compound 33 acts as depolymeriser of the microtubule network of MCF-7 breast cancer cells. Cells were treated with vehicle control ([…]), CA-4 (0.01 μM), paclitaxel (1 μM) or compound 33 (0.1, 0.5 and 1 μM) for 16 h. […]

COc1ccc(/C=C\c2cc(OC)c(OC)c(OC)c2)cc1O [CA-4, combretastatin A-4, reference compound]
IC50 (MDA-MB-231 cells): 43 nM | reduction in the Vmax of tubulin polymerisation [1]: 6.3 fold | effect on the microtubule network (MCF-7 cells): depolymerisation and destabilisation

COc1ccc(C2C(F)C(=O)N2c2cc(OC)c(OC)c(OC)c2)cc1F (centres unmarked) [Compound 33, 3-Fluoro-4-(3-fluoro-4-methoxyphenyl)-1-(3,4,5-trimethoxyphenyl)azetidin-2-one]
IC50 (MDA-MB-231 cells): 620 nM | effect on the microtubule network (MCF-7 cells): destabilising microtubules

— PMC9501633, “Synthesis, Characterisation and Mechanism of Action of Anticancer 3-Fluoroazetidin-2-ones” (Pharmaceuticals, 2022)
